The record followed here is paper PMC4979471 (Cell Death Discovery, 2015).

Where two headings read alike, the source gives them in different places.

Holding throughout (assay): Kinase selectivity, P33-radiolabeled assay
Holding throughout (format): biochemical
Conditions in all cases: 10 μM ATP

The target of assay [1] is T1, IKKe/IKBKE (Homo sapiens, UniProt Q14164).
T1 construct: purchased Reaction Biology Corp
T1 sequence (Q14164 1-716): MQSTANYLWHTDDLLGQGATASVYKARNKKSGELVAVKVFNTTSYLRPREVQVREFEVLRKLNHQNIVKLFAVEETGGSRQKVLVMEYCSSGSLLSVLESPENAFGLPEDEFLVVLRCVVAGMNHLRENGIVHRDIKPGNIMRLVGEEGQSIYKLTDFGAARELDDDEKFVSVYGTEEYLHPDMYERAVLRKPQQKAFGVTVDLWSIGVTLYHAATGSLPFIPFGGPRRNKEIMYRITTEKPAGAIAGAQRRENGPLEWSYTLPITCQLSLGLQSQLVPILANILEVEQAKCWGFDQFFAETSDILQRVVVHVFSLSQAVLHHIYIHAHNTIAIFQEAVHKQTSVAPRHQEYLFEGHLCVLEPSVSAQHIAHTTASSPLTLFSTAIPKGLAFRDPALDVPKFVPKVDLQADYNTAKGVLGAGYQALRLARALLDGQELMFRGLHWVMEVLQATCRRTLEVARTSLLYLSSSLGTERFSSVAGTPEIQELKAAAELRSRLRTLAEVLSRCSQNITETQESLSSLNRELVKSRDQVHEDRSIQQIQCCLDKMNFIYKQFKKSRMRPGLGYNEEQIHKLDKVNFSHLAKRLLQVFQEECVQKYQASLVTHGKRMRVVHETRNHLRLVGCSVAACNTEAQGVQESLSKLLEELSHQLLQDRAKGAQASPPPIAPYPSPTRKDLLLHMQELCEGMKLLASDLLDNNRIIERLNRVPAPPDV
A digest of the protocol:
(§1)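 Values show % enzyme activity normalised to DMSO vehicle. They come from one 10 μM compound concentration run twice, at an ATP level of 10 μM.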

For assay [2], the target named is T2, LKB1 (Homo sapiens, UniProt Q15831).
T2 construct: purchased Reaction Biology Corp
T2 sequence (Q15831 1-433): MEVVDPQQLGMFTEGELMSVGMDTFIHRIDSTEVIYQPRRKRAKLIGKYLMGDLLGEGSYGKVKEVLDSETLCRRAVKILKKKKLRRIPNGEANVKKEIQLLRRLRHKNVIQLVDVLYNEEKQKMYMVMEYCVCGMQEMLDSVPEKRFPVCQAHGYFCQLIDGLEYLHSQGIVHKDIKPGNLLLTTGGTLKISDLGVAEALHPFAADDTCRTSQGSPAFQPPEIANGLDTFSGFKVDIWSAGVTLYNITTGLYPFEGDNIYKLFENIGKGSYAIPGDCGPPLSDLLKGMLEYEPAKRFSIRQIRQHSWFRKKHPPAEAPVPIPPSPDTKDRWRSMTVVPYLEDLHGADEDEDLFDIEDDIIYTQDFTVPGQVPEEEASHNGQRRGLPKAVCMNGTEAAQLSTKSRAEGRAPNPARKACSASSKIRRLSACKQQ
T2 sequence (Q7RTN6 1-431 partner): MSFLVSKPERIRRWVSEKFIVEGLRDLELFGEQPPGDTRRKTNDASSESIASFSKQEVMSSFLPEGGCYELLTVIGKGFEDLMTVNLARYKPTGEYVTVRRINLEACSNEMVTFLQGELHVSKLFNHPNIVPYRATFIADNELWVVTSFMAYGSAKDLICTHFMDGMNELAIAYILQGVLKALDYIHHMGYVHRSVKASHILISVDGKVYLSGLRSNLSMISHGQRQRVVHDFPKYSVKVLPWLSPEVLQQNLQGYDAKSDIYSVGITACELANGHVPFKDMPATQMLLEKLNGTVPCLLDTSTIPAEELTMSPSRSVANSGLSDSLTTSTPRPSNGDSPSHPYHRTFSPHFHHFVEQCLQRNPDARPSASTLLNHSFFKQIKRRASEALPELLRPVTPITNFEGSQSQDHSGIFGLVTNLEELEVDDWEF
T2 sequence (Q9Y376 1-341 partner): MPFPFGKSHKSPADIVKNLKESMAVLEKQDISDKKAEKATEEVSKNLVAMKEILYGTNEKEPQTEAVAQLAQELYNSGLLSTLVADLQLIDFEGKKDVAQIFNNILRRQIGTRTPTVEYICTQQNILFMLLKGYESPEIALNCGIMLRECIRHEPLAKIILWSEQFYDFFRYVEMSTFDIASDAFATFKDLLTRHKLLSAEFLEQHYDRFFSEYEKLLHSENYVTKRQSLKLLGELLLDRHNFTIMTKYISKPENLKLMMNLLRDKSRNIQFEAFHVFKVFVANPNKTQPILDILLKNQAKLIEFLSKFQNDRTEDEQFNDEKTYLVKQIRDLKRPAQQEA
Summed up:
as §1

Assay [3] addresses T3, FGFR2 (Homo sapiens, UniProt P21802).
T3 construct: purchased Reaction Biology Corp
A digest of the protocol:
as §1

Assay [4] deals with T4, TLK2 (Homo sapiens, UniProt Q86UE8).
T4 construct: purchased Reaction Biology Corp
A digest of the protocol: as §1

Where [5] appears, read: read-out: % Enzyme Activity (relative to DMSO controls) AVG.
The mark [6] stands for this setting: read-out: % Enzyme Activity (relative to DMSO controls) Data 1.
The mark [7] stands for this setting: read-out: % Enzyme Activity (relative to DMSO controls) Data 2.

T3 sequence (P21802 22-821): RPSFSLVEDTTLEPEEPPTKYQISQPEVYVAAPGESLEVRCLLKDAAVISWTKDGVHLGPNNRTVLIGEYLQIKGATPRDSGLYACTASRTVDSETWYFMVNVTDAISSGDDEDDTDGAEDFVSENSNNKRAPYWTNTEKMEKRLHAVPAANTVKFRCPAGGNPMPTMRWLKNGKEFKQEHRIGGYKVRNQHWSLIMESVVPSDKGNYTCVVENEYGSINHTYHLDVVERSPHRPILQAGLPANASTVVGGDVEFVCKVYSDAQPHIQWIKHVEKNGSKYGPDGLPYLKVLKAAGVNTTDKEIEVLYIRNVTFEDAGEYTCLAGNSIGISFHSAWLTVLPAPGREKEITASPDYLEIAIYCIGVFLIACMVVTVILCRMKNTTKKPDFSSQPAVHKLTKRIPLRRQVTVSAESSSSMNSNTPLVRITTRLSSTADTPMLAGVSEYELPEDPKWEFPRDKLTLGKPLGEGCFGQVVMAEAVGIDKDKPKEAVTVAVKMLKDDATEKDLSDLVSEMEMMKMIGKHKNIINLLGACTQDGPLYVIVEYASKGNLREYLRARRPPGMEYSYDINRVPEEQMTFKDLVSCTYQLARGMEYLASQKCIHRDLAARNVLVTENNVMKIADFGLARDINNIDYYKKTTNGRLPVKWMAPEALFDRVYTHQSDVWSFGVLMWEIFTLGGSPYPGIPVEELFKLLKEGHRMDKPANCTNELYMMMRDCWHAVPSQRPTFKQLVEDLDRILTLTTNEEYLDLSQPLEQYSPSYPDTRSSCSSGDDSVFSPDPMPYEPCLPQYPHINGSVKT
T4 sequence (Q86UE8 whole entry): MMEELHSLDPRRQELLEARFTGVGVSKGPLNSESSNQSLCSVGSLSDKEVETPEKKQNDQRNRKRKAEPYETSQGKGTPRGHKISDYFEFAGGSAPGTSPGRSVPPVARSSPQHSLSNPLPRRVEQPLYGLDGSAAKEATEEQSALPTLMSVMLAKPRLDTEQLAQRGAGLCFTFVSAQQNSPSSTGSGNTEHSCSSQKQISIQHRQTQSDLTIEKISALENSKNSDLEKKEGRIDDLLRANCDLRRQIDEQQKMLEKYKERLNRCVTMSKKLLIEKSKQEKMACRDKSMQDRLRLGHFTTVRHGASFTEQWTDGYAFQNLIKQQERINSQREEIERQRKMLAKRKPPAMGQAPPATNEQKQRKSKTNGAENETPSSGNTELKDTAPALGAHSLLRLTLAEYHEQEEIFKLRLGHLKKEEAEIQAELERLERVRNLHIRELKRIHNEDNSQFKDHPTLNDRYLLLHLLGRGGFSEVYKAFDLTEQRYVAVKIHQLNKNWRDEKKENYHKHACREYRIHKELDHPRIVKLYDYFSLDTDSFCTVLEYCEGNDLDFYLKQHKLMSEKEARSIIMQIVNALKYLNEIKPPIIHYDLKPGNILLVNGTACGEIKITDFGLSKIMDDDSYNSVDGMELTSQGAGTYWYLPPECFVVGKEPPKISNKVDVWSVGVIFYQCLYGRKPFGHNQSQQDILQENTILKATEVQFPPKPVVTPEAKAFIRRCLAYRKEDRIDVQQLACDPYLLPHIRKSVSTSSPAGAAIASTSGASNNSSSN

For the compound `CC(C)(C)C(=O)N1N=CC[C@H]1c1ccccc1` [GSK′963], the remaining activity at 10 µM came out at 70% in assay [1] (setting [5]); 68.1% in assay [1] (setting [6]); 71.8% in assay [1] (setting [7]); 105% in assay [2] (setting [5]); 105% in assay [2] (setting [6]); 106% in assay [2] (setting [7]). The remaining activity at 10 µM in assay [3] (setting [5]) was found to be 110%; in assay [3] (setting [6]) it was 108%; in assay [3] (setting [7]), 112%; in assay [4] (setting [5]), 93.2%; in assay [4] (setting [6]), 92.9%; in assay [4] (setting [7]), 93.5%.
